Laboratory results reported in ChEMBL document CHEMBL1201862, “PubChem BioAssay data set” (2004).
Calls of active or inactive are those of the source.

What was measured:
[1] = molecular target: Voltage-gated inwardly rectifying potassium channel KCNH2 (Homo sapiens, UniProt Q12809); settings: Potency;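 note: confirmatory quantitative high-throughput screen measuring inhibition of hERG channel activity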
HeLa = assay: HeLa cell cytotoxicity, dose response, cytotoxicity control for MITF activator project, CellTiter-Glo luminescence, cherry-pick samples (AID 540259); format: functional, cell-based; settings: Homo sapiens
[2] = molecular target: T1, Type-1 angiotensin II receptor (Homo sapiens, UniProt P30556); assay: AT1 receptor agonists, dose response, selectivity assay for APJ receptor agonist project, cell-based, uHTS hits (AID 488865); format: functional;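 note: beta-arrestin recruitment to AT1 measured by enzyme fragment complementation luminescence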
T1 sequence (P30556 whole entry): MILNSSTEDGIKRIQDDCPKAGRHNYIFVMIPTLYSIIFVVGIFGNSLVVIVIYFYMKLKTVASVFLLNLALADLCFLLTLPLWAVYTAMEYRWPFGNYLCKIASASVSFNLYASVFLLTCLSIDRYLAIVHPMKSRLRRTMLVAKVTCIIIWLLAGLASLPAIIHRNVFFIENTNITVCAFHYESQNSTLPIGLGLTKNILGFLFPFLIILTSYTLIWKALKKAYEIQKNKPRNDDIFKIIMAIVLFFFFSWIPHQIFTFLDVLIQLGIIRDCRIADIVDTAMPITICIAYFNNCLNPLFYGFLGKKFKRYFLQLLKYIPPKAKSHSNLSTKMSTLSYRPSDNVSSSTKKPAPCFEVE

[3] = molecular target: T2, Short transient receptor potential channel 4 (Mus musculus, UniProt Q9QUQ5); assay: mouse TRPC4 channel activators, dose response, cell-based, HEK293 TRPC4/mu-opioid, Fluo-4 calcium (AID 434937); format: functional
T2 sequence (Q9QUQ5 whole entry): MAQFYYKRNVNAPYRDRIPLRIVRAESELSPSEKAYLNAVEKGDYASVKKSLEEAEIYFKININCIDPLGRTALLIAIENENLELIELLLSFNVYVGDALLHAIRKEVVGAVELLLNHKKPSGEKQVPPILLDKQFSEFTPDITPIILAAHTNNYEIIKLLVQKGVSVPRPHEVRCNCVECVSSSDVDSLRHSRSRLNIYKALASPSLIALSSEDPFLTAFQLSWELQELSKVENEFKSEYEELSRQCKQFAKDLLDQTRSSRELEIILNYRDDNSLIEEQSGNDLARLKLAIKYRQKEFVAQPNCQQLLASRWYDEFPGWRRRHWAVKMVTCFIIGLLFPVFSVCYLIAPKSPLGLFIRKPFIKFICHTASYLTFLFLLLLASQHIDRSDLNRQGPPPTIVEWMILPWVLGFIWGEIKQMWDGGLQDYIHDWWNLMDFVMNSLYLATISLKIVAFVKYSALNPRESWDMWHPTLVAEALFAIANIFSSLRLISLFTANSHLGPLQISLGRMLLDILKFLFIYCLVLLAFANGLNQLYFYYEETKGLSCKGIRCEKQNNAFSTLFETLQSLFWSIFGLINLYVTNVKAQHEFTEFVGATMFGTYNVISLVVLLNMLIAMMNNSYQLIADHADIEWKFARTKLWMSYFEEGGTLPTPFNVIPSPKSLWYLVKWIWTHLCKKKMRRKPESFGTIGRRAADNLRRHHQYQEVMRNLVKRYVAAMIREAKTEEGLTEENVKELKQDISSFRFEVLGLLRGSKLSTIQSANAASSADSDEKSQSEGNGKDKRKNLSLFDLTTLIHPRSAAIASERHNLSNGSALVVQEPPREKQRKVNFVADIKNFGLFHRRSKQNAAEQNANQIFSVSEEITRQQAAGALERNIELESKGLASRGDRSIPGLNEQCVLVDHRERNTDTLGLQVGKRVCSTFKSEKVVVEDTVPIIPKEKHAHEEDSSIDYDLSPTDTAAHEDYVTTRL

Coagulation factor XII = molecular target: T3, Coagulation factor XII (Homo sapiens, UniProt P00748); format: functional;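 note: activated factor XIIa alpha cleaving a fluorogenic AMC peptide substrate; inhibitor potency from loss of enzyme activity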
T3 sequence (P00748 whole entry): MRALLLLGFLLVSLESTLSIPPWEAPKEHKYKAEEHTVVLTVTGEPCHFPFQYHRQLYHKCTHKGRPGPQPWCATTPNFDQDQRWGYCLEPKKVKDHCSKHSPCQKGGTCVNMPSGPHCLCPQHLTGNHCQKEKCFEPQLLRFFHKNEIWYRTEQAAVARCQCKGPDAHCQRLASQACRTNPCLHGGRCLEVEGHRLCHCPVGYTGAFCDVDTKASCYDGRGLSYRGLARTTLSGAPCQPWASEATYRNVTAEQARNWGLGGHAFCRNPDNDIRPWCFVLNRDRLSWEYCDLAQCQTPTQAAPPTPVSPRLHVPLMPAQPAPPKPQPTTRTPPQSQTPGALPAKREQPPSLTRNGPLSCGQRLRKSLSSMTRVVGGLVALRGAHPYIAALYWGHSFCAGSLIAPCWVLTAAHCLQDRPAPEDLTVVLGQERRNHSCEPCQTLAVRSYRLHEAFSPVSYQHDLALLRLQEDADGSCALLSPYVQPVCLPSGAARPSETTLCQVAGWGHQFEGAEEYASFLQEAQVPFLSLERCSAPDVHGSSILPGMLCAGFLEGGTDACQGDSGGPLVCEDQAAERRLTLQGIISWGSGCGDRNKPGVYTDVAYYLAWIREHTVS

Fatty acid synthase [4] = molecular target: T4, Fatty acid synthase (Homo sapiens, UniProt P49327); assay: FAS thioesterase domain inhibitors, dose response, biochemical, endpoint fluorescence intensity, uHTS hits (AID 624327); format: functional;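 note: fluorescence from hydrolysis of an O-methyl fluorescein acyl ester substrate by the enzyme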
T4 sequence (P49327 whole entry, the tested form may be a part): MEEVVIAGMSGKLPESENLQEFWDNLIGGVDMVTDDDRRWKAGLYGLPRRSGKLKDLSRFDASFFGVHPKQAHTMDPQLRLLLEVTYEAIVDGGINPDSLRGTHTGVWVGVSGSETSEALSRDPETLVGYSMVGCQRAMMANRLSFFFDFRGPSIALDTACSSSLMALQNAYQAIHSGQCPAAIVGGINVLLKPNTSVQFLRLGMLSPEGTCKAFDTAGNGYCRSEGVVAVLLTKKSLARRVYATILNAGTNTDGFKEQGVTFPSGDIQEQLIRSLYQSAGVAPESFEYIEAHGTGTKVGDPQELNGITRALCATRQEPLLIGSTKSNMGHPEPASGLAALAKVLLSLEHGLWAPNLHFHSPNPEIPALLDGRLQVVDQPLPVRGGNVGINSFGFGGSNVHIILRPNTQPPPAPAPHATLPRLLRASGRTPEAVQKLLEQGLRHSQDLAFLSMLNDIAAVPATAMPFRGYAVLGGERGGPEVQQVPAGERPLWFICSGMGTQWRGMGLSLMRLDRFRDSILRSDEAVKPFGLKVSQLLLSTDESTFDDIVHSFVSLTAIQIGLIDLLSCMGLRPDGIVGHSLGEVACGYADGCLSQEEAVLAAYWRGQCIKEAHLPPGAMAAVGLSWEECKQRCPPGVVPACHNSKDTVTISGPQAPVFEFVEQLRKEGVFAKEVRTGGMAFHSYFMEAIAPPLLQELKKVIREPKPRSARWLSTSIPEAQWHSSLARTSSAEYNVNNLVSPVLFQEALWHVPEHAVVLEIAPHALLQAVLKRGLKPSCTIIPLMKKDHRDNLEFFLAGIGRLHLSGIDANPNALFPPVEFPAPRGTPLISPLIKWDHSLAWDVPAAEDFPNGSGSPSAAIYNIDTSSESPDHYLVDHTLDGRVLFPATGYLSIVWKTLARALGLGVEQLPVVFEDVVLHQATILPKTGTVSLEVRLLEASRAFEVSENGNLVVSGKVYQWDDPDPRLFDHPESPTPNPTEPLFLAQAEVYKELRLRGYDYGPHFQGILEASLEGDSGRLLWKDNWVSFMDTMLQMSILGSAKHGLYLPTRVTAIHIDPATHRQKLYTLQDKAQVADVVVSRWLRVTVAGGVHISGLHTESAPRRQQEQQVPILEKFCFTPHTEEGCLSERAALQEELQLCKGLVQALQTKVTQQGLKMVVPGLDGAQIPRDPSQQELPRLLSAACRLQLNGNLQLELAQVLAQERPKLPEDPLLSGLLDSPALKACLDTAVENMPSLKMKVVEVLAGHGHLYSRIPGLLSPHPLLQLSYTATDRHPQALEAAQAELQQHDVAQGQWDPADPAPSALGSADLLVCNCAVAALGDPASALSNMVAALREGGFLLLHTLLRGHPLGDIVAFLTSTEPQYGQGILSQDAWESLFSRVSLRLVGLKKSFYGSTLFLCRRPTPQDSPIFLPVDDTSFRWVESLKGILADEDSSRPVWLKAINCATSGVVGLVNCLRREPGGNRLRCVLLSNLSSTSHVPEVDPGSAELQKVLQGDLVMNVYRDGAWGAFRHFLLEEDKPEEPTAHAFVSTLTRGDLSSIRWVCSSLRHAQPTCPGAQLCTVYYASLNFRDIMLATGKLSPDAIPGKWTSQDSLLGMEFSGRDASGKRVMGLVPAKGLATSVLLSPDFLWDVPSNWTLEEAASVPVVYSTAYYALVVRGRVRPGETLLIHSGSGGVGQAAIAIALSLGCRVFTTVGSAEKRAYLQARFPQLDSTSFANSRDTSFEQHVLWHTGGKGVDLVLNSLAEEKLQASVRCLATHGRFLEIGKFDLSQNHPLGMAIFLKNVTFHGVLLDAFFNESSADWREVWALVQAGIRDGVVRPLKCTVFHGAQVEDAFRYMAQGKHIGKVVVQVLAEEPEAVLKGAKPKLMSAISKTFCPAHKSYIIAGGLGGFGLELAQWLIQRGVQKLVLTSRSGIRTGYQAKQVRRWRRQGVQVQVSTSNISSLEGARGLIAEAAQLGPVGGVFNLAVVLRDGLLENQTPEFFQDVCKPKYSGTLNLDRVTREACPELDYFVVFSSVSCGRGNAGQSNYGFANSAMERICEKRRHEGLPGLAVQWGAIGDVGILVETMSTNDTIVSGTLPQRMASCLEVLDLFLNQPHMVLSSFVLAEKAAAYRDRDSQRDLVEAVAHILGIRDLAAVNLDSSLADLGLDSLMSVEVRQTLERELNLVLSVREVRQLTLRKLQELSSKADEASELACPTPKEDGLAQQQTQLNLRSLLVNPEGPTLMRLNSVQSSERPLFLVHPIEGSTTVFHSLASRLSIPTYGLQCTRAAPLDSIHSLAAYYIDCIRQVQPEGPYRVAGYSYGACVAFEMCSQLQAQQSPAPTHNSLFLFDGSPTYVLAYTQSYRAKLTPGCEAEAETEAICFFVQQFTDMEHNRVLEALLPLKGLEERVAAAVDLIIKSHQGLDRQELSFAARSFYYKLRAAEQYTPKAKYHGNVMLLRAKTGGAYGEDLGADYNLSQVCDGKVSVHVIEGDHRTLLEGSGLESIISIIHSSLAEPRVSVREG

Fatty acid synthase [5] = molecular target: T4, Fatty acid synthase; assay: FAS thioesterase domain inhibitors, dose response, biochemical, kinetic fluorescence intensity (AID 624326); format: functional;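 note: rate of fluorescence rise from hydrolysis of a fluorogenic O-methyl fluorescein ester substrate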
[6] = molecular target: T5, Nuclear receptor subfamily 0 group B member 1 (Homo sapiens, UniProt P51843); assay: Luminescence-based cell-based high throughput dose response assay for inhibitors of the orphan nuclear receptor subfamily 0, group B, member 1 (DAX1; NR0B1). [Related pubchem assays (depositor defined):AID504766, AID504790]; format: functional
T5 sequence (P51843 whole entry): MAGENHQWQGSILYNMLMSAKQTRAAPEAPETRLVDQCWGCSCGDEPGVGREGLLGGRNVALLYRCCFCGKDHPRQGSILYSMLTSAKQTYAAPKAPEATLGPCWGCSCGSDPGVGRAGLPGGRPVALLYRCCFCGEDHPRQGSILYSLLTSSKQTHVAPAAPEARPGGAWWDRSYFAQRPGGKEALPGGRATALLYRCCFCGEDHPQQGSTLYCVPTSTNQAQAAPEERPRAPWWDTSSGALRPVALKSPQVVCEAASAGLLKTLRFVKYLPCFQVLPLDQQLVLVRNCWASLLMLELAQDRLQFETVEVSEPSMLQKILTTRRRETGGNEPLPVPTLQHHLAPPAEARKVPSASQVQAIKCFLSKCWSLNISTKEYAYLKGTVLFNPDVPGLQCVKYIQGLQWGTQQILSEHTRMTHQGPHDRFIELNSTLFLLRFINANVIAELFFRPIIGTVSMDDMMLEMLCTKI

HEK293 = assay: cells; format: functional, cell-based; settings: Homo sapiens
Hexokinase-1 = Hexokinase-1 (Homo sapiens, UniProt P19367); assay: SAR analysis of small molecule inhibitors of hexokinase domain containing I (HKDC1) in the hexokinase 1 selectivity assay. [Related pubchem assays (depositor defined):AID493160, AID493190]; format: functional
Hexokinase HKDC1 = Hexokinase HKDC1 (Homo sapiens, UniProt Q2TB90); assay: SAR analysis of small molecule inhibitors of hexokinase domain containing I (HKDC1). [Related pubchem assays (depositor defined):AID493160, AID493190]; format: functional
Hexokinase HKDC1, sequence (Q2TB90 whole entry, the tested form may be a part): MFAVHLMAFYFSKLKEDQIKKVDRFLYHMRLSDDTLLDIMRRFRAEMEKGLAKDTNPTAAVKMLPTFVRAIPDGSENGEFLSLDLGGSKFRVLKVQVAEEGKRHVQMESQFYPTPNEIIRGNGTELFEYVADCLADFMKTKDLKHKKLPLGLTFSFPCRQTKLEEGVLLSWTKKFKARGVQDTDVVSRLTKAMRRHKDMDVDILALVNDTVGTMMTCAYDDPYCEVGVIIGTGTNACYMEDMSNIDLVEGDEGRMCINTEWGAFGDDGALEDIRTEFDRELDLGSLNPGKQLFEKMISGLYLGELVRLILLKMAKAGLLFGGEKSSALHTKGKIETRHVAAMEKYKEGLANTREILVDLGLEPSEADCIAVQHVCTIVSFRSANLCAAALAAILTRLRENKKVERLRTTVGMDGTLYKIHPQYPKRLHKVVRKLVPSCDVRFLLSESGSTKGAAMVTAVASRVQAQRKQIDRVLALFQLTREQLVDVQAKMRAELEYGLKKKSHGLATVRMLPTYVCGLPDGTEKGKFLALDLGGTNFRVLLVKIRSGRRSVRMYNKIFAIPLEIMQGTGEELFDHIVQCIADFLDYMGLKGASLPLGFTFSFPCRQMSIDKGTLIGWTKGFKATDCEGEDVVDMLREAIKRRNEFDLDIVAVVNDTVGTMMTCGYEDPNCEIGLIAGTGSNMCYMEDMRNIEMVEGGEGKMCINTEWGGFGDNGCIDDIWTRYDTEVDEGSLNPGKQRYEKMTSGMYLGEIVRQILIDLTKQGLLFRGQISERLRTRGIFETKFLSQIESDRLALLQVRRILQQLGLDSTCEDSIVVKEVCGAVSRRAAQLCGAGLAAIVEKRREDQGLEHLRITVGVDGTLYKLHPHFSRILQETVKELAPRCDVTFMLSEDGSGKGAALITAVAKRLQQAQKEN

Cytochrome P450 1A2 = molecular target: T6, Cytochrome P450 1A2 (Homo sapiens, UniProt P05177);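 note: PubChem cytochrome P450 panel assay, CYP1A2 panel member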
T6 sequence (P05177 whole entry): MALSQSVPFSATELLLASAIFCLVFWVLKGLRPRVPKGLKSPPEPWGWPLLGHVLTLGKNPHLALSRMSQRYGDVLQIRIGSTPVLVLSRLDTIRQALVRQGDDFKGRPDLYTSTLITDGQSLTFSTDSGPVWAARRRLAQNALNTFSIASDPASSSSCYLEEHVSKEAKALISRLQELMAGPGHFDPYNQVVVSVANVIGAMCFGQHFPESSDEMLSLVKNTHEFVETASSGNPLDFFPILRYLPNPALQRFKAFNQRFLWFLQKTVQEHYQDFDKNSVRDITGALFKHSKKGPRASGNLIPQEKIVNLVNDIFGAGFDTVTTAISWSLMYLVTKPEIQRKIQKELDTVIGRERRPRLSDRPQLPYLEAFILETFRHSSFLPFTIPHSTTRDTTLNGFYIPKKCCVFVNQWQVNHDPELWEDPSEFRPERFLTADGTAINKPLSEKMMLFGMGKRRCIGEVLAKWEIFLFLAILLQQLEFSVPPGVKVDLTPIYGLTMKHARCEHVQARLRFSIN

Cytochrome P450 3A4 = Cytochrome P450 3A4 (Homo sapiens, UniProt P08684);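 note: CYP3A4 tested as one member of a cytochrome P450 panel screen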
Cytochrome P450 3A4, sequence (P08684 whole entry): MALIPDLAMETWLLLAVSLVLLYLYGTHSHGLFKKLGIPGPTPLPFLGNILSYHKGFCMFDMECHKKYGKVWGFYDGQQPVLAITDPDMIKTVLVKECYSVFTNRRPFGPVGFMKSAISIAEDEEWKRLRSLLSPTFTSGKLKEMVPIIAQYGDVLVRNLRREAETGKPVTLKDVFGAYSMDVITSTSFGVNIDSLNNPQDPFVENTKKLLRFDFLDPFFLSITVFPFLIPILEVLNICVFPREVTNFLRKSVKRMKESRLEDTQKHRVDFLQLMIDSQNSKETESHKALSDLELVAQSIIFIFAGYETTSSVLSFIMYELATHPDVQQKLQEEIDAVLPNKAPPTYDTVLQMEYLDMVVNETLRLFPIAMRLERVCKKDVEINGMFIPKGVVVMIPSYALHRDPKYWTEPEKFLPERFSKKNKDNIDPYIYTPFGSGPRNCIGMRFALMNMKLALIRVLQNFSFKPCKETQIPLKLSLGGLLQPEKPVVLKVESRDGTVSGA

Cytochrome P450 2D6 = Cytochrome P450 2D6 (Homo sapiens, UniProt P10635);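 note: CYP2D6 member of a cytochrome P450 panel assay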

Voltage-gated inwardly rectifying potassium channel KCNH2, sequence (Q12809 whole entry): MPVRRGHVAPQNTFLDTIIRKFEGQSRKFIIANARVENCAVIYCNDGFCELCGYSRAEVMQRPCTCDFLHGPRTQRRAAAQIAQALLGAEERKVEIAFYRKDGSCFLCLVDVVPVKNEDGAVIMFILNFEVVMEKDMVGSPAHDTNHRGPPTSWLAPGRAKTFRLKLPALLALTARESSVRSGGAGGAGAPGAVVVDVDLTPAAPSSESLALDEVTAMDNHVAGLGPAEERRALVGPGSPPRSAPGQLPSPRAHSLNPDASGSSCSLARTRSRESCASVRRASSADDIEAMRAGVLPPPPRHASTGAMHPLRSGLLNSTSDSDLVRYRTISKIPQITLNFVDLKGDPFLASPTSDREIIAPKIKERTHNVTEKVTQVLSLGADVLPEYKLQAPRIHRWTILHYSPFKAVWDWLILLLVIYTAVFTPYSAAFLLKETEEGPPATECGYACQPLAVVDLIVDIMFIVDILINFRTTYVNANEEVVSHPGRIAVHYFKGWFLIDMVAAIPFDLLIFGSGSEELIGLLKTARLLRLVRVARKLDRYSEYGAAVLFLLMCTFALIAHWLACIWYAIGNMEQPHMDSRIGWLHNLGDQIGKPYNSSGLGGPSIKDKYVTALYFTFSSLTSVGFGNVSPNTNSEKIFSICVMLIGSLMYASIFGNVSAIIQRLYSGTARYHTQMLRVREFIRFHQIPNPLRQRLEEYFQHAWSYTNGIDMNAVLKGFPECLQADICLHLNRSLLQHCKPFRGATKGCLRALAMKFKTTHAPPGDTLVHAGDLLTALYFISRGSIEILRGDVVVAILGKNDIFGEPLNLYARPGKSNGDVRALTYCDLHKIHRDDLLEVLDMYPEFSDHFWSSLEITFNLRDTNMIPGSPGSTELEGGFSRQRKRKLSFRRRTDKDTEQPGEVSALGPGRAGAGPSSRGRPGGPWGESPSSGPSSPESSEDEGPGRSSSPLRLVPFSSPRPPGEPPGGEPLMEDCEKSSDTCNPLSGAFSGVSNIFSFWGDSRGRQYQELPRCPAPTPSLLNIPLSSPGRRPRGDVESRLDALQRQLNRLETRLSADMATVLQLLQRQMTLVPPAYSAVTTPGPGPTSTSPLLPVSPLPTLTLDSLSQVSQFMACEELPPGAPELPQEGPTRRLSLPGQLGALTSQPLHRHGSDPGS

Q: For `C[C@]12CC[C@@H](O)CC1CC[C@@H]1[C@@H]2CC[C@]2(C)C(=O)CC[C@@H]12` (some centres not stated), which AC50 [1] is on record?
A: 25.1 µM (inconclusive)

Q: `Cc1nc(C(=O)Nc2ccccc2)sc1C(=O)Nc1ccccc1` was tested. Which AC50 (HeLa) did it give?
A: 58.6 µM (active)

Q: Which EC50 [2] does the source give for `CC1CCCCN1S(=O)(=O)c1ccc(C(=O)N(CCCN(C)C)c2nc3ccc(Br)cc3s2)cc1` (configuration not stated) here?
A: > 100 µM (inactive)

Q: And the EC50 [3]?
A: 4.73 µM (active)

Q: How did the IC50 (Coagulation factor XII) turn out when `CN(C)S(=O)(=O)Oc1ccsc1C(=O)Nc1ccc(Cl)c(Cl)c1` was run?
A: > 50 µM (inactive)

Q: Which results are given for `O=S(=O)(c1ccccc1)n1ccc(-c2cnc(-c3ccccc3)s2)n1`?
A: IC50 (Fatty acid synthase [4]): 7.41 µM (active); IC50 (Fatty acid synthase [5]): 6.85 µM (active); AC50 (HeLa): 101 µM (active)

Q: Which EC50 [2] does the source give for `CCC(c1nnnn1Cc1ccccc1)N(Cc1cc2cc(OC)ccc2[nH]c1=O)CC1CCCO1` (configuration not stated) here?
A: > 100 µM (inactive)

Q: For `Cc1ccc2nc(N3CCOCC3)c(C=O)cc2c1`, which IC50 [6] is on record?
A: > 67.5 µM (inactive)

Q: What about the IC50 (HEK293) of the same molecule?
A: > 67.5 µM (inactive)

Q: Which IC50 (Coagulation factor XII) does the source give for `CN1CCN(CCNC(=O)c2cn(Cc3ccccc3F)nn2)CC1` here?
A: > 50 µM (inactive)

Q: With `N#Cc1ccc(CSc2nnc(NC(=O)c3ccco3)s2)cc1` as the molecule, how does the IC50 (Hexokinase-1) read?
A: > 80 µM (inactive)

Q: What about the IC50 (Hexokinase HKDC1) of the same molecule?
A: > 80 µM (inactive)

Q: How did the IC50 (Hexokinase-1) turn out when `Cc1cccc(/C=C\c2nc3ccccc3c(=O)n2Cc2ccccc2)c1` was run?
A: > 80 µM (inactive)

Q: And the IC50 (Hexokinase HKDC1)?
A: > 80 µM (inactive)

Q: What does the source list for `COc1ccc(S(=O)(=O)N2CCN(C(=O)c3ccc(O)nn3)CC2)cc1OC`?
A: IC50 [6]: > 67.5 µM (inactive); IC50 (HEK293): > 67.5 µM (inactive)

Q: What does the source list for `COc1cccc(C(=O)NCCN2CCN(c3ccc(Cl)cc3)CC2)c1`?
A: AC50 (Cytochrome P450 1A2): 12.6 µM (inconclusive); AC50 (Cytochrome P450 3A4): 15.8 µM (inconclusive); AC50 (Cytochrome P450 2D6): 31.6 µM (inconclusive); AC50 [1]: 1 µM (inconclusive)
